# Data taken from patent publication US8158828B2, “Nuclear receptor binding agents” (priority 2005, dated 2012).
# Where two headings read alike, the source gives them in different places.
# Columns and labels:
# ER-α = target: T1, ER-α (Rattus norvegicus, UniProt P06211); experiment: ER-α transactivation, ERE-LUC in COS or 293 cells; assay type: cell-based; set-up: % estardiol activity, ER-α: dose or concentration left out as unconfirmed; conditions: for IC50: ER alpha antagonists; for EC50: ER alpha agonists
# T1 sequence (P06211 1-600): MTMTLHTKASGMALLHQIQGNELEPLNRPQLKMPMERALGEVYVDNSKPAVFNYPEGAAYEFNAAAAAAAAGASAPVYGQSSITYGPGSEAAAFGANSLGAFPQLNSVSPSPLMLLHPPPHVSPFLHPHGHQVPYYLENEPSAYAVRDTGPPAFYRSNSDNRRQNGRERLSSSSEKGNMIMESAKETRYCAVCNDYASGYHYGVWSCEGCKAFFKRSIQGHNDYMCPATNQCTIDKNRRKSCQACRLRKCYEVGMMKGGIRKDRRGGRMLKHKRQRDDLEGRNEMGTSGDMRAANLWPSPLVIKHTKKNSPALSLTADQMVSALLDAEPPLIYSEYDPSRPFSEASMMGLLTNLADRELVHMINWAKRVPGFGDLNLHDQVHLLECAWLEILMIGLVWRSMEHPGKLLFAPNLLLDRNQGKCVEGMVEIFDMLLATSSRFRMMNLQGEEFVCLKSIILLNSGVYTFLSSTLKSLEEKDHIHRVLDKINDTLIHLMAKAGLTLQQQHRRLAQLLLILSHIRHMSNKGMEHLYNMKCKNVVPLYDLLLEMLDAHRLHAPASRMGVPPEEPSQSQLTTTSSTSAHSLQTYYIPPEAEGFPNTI
# Description: FIG. 1: Effects of the indicated compounds on ER-α transactivation. COS or 293 cells plated in DME without phenol red+10% charcoal stripped fetal bovine serum (csFBS) at 90,000 cells per well of 24 well plates were transfected with 0.25 μg ERE-LUC, 0.02 μg CMV-LUC (Renilla) and 25 ng of ER-α by lipofectamine. Twenty four hours after transfection, the cells were treated as indicated in the figure, harvested 48 hrs after transfection and were assayed for firefly and renilla luciferase.
# (§1) FIG. 5: Effect of the indicated compounds on ER-α transactivation. COS or 293 cells plated in DME without phenol red+10% csFBS at 90,000 cells per well of a 24 well plate were transfected with 0.25 μg ERE-LUC, 0.02 μg CMV-LUC (Renilla) and 5 ng of ER-α by lipofectamine. Twenty four hours after transfection, the cells were treated as indicated in the figure, harvested 48 hrs after transfection and were assayed for firefly and renilla luciferase.
# as §1, with “FIG. 9:” for “FIG. 5:”, “csFBS” for “csFBS at 90,000 cells”, “and 25” for “and 5”
# Also 25 ng of ER-α (FIGS. 1, 5, and 9), 50 ng of ER-β (FIGS. 2, 6 and 10) or 12.5 ng of AR (FIG. 3) were introduced by lipofectamine. All the receptors were cloned from rat tissue into the PCR3.1 vector backbone. […] Cells were harvested 48 hrs after transfection, and assayed for firefly and Renilla luciferase activity.
# Also 25 ng of ER-α), 50 ng of ER-β or 12.5 ng of AR were introduced by lipofectamine. All the receptors were cloned from rat tissue into the PCR3.1 vector backbone. […] Cells were harvested 48 hrs after transfection, and assayed for firefly and Renilla luciferase activity.
# ER-β = target: T2, ER-β (Rattus norvegicus, UniProt Q62986); experiment: ER-β transactivation, ERE-LUC in COS or 293 cells; assay type: cell-based; set-up: % estardiol activity, ER-β: dose or concentration left out as unconfirmed; conditions: for ER-β LUC expression, compound alone: COS or 293 cells
# T2 construct: expressed in transfected cells; host or cells: COS or 293 cells
# Description: as §1, with “FIG. 2:” for “FIG. 5:”, “on ER-β” for “on ER-α”, “and 50” for “and 5”, “of ER-β” for “of ER-α”
# as §1, with “FIG. 6:” for “FIG. 5:”, “on ER-β” for “on ER-α”, “and 50” for “and 5”, “of ER-β” for “of ER-α”, “and” for “and were”
# as §1, with “FIG. 10:” for “FIG. 5:”, “on ER-β” for “on ER-α”, “in DME+10%” for “in DME without phenol red+10%”, “and 50” for “and 5”, “of ER-β” for “of ER-α”
# (§2) All the receptors were cloned from rat tissue into the PCR3.1 vector backbone. […] Cells were harvested 48 hrs after transfection, and assayed for firefly and Renilla luciferase activity.
# as §2
# [1] = Metabolic stability in human liver microsomes; conditions: 1 μM substrate, 0.5 mg/mL microsomes
# Description: Each substrate or reference control was dissolved at a concentration of 10 mM in DMSO, from which a 5 μM spiking solution was prepared by dilution in water. Substrates (1 μM) were incubated in the presence of human liver microsomes (Xenotech LLC, Kansas City Mo.) at 0.5 mg/mL fortified with an NADPH regenerating system at 37° C. and pH 7.4. The NADPH regenerating system consisted of glucose-6-phosphate dehydrogenase (1 units/mL) in 0.05M K2HPO4. Duplicate incubations were performed in 96-well polypropylene cluster tubes in a final volume of 250 μL per reaction. At 0, 2, 4, 6, 10, 30, and 60 minutes a stop solution (300 μL acetonitrile) was added to aliquots of the reaction mixture. Precipitated protein was removed by centrifugation (3000 rpm for 15 minutes) and the supernatants were transferred to clean 96-well plates for analysis.
# The samples were injected onto a Phenomenex Luna hexylphenyl 50×2 mm i.d. 5 uM, column fitted with a guard column. An isocratic mobile phase consisting of 50% acetonitrile and 0.1% formic acid in water was used at a flow rate of 0.3 mL/min. The protonated molecular ion (M+H)^+ of the analyte was monitored by MDS/Sciex API 4000QTrap triple quadrupole mass spectrometer using electrospray positive mode ionization with a temperature of 500° C. and a spray voltage of 4000V. Total analysis time was 1.5 min per sample.
# Metabolic stability was defined as the amount of substrate metabolized by the incubation with hepatic microsomes and expressed as a percentage of the initial amount of substrate (% remaining) based on peak area. Initial substrate concentration for each analyte was 1 μM. The initial peak area of each substrate was determined at time zero and metabolic stability was assessed based on the change in analyte peak area from time 0 min to a single fixed timepoint for each sample (2-60 min, representative timepoints are shown in Table 2 below).
# [2] = ER beta agonists, read-out: EC50 (ER-β)
# T2 sequence (Q62986 whole entry): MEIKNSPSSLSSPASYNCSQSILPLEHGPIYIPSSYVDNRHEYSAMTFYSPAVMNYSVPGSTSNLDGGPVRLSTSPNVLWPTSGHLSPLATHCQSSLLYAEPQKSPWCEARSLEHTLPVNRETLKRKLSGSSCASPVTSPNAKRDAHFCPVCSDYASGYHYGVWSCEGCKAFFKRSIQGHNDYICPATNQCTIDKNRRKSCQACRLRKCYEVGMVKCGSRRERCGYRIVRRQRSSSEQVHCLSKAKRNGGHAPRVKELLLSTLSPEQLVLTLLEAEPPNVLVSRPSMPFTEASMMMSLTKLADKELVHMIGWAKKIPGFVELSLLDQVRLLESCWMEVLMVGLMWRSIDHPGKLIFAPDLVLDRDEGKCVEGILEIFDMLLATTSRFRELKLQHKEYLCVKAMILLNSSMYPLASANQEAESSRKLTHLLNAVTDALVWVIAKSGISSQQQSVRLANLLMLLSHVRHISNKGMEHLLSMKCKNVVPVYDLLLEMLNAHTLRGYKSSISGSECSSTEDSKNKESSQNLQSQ
compound,measurement,setting,value
"CCCc1ccc(C(=O)N(c2ccc(O)cc2)c2ccc(OCCN3CCCCC3)cc2)cc1 [Compound 10o, N-(4-hydroxyphenyl)-N-(4-(2-(piperidin-1-yl)ethoxy)phenyl)-4-propylbenzamide]","% estardiol activity, ER-α",ER-α,12%
same,inhibition of estradiol (E2) induced ER-α activity (luciferase expression),"ER-α; COS or 293 cells, with estrogen",inhibited estrogen stimulated luciferase expression
"Cc1cc(C(=O)N(c2ccc(O)cc2)c2ccc(O)cc2)ccc1O [Compound 10n, 4-hydroxy-N,N-bis(4-hydroxyphenyl)-3-methylbenzamide]",IC50,"ER-β; ER beta antagonist, read-out: IC50 (ER-β)",47 nM
"O=C(c1ccc(O)cc1)N(c1ccc(O)cc1)C1CCCCC1 [Compound 10w, N-cyclohexyl-4-hydroxy-N-(4-hydroxyphenyl)benzamide]","% estardiol activity, ER-α",ER-α,21.9%
"CCCc1ccc(C(=O)N(c2ccc(O)cc2)c2ccc(O)cc2)cc1 [Compound 10l, N,N-bis(4-hydroxyphenyl)-4-propylbenzamide]",EC50,ER-β,27 nM
same,"% estardiol activity, ER-α",ER-α,32%
"O=C(c1cccc(F)c1)N(c1ccc(O)cc1)c1ccc(OCCN2CCCCC2)cc1 [Compound 11g, 3-fluoro-N-(4-hydroxyphenyl)-N-(4-(2-(piperidin-1-yl)ethoxy)phenyl)benzamide]",IC50,ER-α,16 nM
"Cc1cccc(CN(c2ccc(O)cc2)c2ccc(O)cc2)c1C [Compound 10t, 4,4′-(2,3-dimethyl-benzylazanediyl)diphenol]",IC50,ER-β,17 nM
"Cc1ccc(C(=O)N(c2ccc(O)cc2)c2ccc(O)cc2)cc1C [Compound 10d, N,N-bis(4-hydroxyphenyl)-3,4-dimethylbenzamide]",EC50,ER-β; [2],85 nM
same,"% estardiol activity, ER-α",ER-α,21.4%
"O=C(c1ccc(F)cc1)N(c1ccc(O)cc1)c1ccc(O)cc1 [Compound 3k, N,N-bis(4-hydroxyphenyl)-4-fluoro-benzamide]",% Remaining 0 min,[1]; 0 min,100%
same,% Remaining 10 min,[1]; 10 min,119%
same,% Remaining 30 min,[1]; 30 min,120%
same,% Remaining 60 min,[1]; 60 min,94%
same,EC50,ER-α,12 nM
"O=C(c1ccc(O)c(F)c1)N(c1ccccc1)c1ccc(O)cc1 [Compound 10f, 3-fluoro-4-hydroxy-N-(4-hydroxyphenyl)-N-phenylbenzamide]",EC50,ER-β,42 nM
same,"% estardiol activity, ER-α",ER-α,85%
"O=C(c1cccc2ccccc12)N(c1ccc(O)cc1)c1ccc(OCCN2CCCCC2)cc1 [Compound 11f, N-(4-hydroxyphenyl)-N-(4-(2-(piperidin-1-yl)ethoxy)phenyl)-1-naphthamide]",IC50,ER-α,69 nM
"O=C(c1ccc(O)c(O)c1)N(c1ccc(O)cc1)c1ccc(O)cc1 [Compound 10m, 3,4-dihydroxy-N,N-bis(4-hydroxyphenyl)-benzamide]",IC50,ER-α,< 10 nM
"O=C(c1ccccc1)N(c1ccccc1)c1ccc(O)cc1 [Compound 3g, N-(4-hydroxyphenyl)-N-phenyl-benzamide]","ER-β LUC expression, compound alone",ER-β,most potent in stimulating ER-β
same,"% estardiol activity, ER-α",ER-α,62.5%
"O=C(c1ccc(O)cc1)N(c1ccccc1)c1cccc(O)c1 [Compound 3j, 4-hydroxy-N-(3-hydroxyphenyl)-N-phenyl-benzamide]","% estardiol activity, ER-α",ER-α,62%
"O=C(c1cccc(O)c1)N(c1ccc(O)cc1)c1ccc(O)cc1 [Compound 3b, 3-hydroxy-N-bis-(4-hydroxyphenyl)-benzamide]",EC50,ER-α,10 nM
"Cl.O=C(c1cccc(OCCN2CCCCC2)c1)N(c1ccccc1)c1ccccc1 [Compound 4d, N,N-diphenyl-[3-(2-piperidinylethoxy)]-benzamide hydrochloride]","% estardiol activity, ER-β",ER-β,30.7%
same,"% estardiol activity, ER-α",ER-α,16.8%
"Oc1ccc(CN(c2ccc(O)cc2)c2ccc(F)cc2)cc1 [Compound 10x, 4-((4-fluorophenyl)(4-hydroxybenzyl)amino)phenol]",EC50,ER-α,16 nM
"O=C(c1ccc(O)cc1)N(c1ccc(O)cc1)c1ccc(-c2ccccc2)cc1 [Compound 3v, N-biphenyl-4-yl-4-hydroxy-N-(4-hydroxyphenyl)-benzamide]",EC50,ER-α,22.4 nM
"O=C(c1ccc(O)cc1)N(c1ccccc1)c1ccc(O)cc1 [Compound 3i, 4-hydroxy-N-(4-hydroxyphenyl)-N-phenyl-benzamide]","ER-β LUC expression, compound alone",ER-β,most potent in stimulating ER-β
same,"% estardiol activity, ER-α",ER-α,77.8%
same,"ER-α activity (luciferase expression), compound alone",ER-α; COS or 293 cells,most potent in stimulating ER-α
"CCCCCc1ccc(C(=O)N(c2ccc(O)cc2)c2ccc(O)cc2)cc1 [Compound 11p, N,N-bis(4-hydroxyphenyl)-4-pentylbenzamide]",EC50,ER-β; [2],< 10 nM
"Cc1cccc(C(=O)N(c2ccc(O)cc2)c2ccc(O)cc2)c1C [Compound 10j, N,N-bis(4-hydroxyphenyl)-2,3-dimethylbenzamide]",IC50,ER-β,20 nM
